The test concerns MDA-MB-468 breast. The test can be described thus: inhibition of tumour cell growth, NCI panel, 48 h.

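Tested at 5 concentrations; 48 h exposure; 96-well plates; endpoints linearly interpolated, else capped at highest concentration. Here, GI50 denotes the concentration required for 50% inhibition of growth. TGI: concentration producing complete growth inhibition.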 Bounds are passed on as bounds.

In the case of `CCN1C(=O)N(CC)C2C1NN=c1s/c(=C\c3cccnc3)c(=O)n12` (stereo unspecified), the GI50 was 363 nM and the TGI is > 100000 nM.

Consider `N#Cc1cnc2cc(OC[C@H](O)CO)c(NC(=O)CC3CSSC3)cc2c1Nc1ccc(OCc2cccc(F)c2)c(Cl)c1`, for which the GI50 is 118 nM and the TGI stood at 363 nM.

In the case of `CCCCCn1c(=N)n(CC(O)COc2cccc(C)c2)c2ccccc21` (stereo unspecified), the GI50 was 2380 nM and the TGI was 5290 nM.

Consider `CCN(Cc1ccc(F)c(F)c1)c1ccc(CO)c(Cl)c1`, for which the GI50 is 16.2 nM and the TGI is 43.8 nM.

Turning to `CN1CCN(CCc2cccc(C(=O)c3cnn(-c4ccc(F)cc4)c3N)c2)CC1`, the GI50 was > 25000 nM and the TGI is > 25000 nM.

Regarding `COC(=O)[C@]12CC[C@@H](C)[C@H](C)[C@@H]1C1=CC[C@@H]3[C@@]4(C)C[C@@H](OC(C)=O)[C@H](O)[C@@](C)(COC(C)=O)[C@@H]4[C@H](O)C[C@@]3(C)[C@]1(C)CC2`, the GI50 is 2330 nM and the TGI is 7270 nM.

Take `O=S(=O)(NC1CC2CCC1C2)c1ccc2c(c1)C(=NO)c1cc(S(=O)(=O)NC3CC4CCC3C4)ccc1-2` (stereo unspecified): the GI50 is 327 nM and the TGI came out at 1090 nM.

On to `COC(=O)[C@H](Cc1cn(C)cn1)NC(=O)[C@H](Cc1c[nH]c2ccccc12)NC(=O)Nc1cc(C(F)(F)F)cc(C(F)(F)F)c1`, for which the GI50 was > 10000 nM and the TGI is > 10000 nM.

On to `C=C1C(=O)O[C@H]2[C@H]1CC/C(COC(=O)NCc1ccccc1OC)=C\CC[C@@]1(C)O[C@@H]21`, for which the GI50 was 669 nM and the TGI came out at 2800 nM.

As to `COc1c(CCC[P+](c2ccccc2)(c2ccccc2)c2ccccc2)cc2c(c1OC)OCO2`, the GI50 was 256 nM and the TGI worked out at 1180 nM.

For the compound `COc1cccc(/C=C/C(=O)c2cccc(Nc3nc(Nc4ccccc4)nc(Nc4ccccc4)n3)c2)c1`, the GI50 is 2500 nM and the TGI was 11300 nM.

`COc1cc(Cl)cc(-c2nn(C(=O)NCCN3CCOCC3)cc2-c2ccncc2)c1`: the GI50 was 2000 nM and the TGI was 11500 nM.

With `O=C(CCCCCCNC(=O)C(O)(O)C(F)(F)F)Nc1ccc(-c2ccccc2)cc1`, the GI50 was 861 nM and the TGI worked out at 3100 nM.

The values are drawn from PubChem BioAssay (NCI).
